Experiments:
[1] = Evaluation of conversion rate to active form in buffer solution (Experimental Example 1); type: physicochemical
Method in brief: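 Compounds at 25 umol/L were held at 37 °C in 50 mM citrate (pH 5.0, 5.5) or phosphate (pH 6.0–7.4) buffers. Remaining compound and Alvocidib formed were quantified by HPLC at 0, 0.5, 1, 2 and 3 h.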

[2] = Evaluation of conversion rate to active form in human plasma (Experimental Example 3); type: in vitro ADME; details: human, 0.2 μmol/L
Protocol: (§1) For Example 1, Example 2, Example 3, Example 4, Example 5, Example 6, Comparative Example 3, Comparative Example 4, Comparative Example 6, Comparative Example 7, Comparative Example 8, Comparative Example 9, Comparative Example 10 and Comparative Example 12, the attrition rate of the test compound and the conversion rate of the test compound to Alvocidib in human plasma and BALB/c mouse plasma were calculated by the following method.
(§2) The test compound was added to human plasma or BALB/c mouse plasma at a concentration of 0.2 μmol/L, and incubated at 37° C. The peak areas of the test compound and Alvocidib in the sample were determined by LC-MS/MS after 0, 30 and 60 minutes for Example 1, Example 2, Example 3, Example 4, Example 5 and Example 6, and after 0, 60 and 120 minutes for Comparative Example 3, Comparative Example 4, Comparative Example 6, Comparative Example 7, Comparative Example 8, Comparative Example 9, Comparative Example 10 and Comparative Example 12, and the attrition rate of the test compound and the conversion rate of the test compound to Alvocidib were calculated by the following formula. Attrition rate of test compound (%):(peak area of test compound in sample/peak area of test compound in sample after 0 minute)×100 Conversion rate to Alvocidib (%):(peak area of Alvocidib in sample/peak area of Alvocidib in reaction solution containing 0.2 μmol/L Alvocidib)×100
(§3) The measurement conditions for LC-MS/MS are as follows. • HPLC: Prominence system (Shimadzu Corporation) • MS/MS: • Example 1, Example 2, Example 3, Example 4, Example 5, Example 6, Comparative Example 8 (mouse), Comparative Example 10 (mouse) and Comparative Example 12 (mouse) • QTRAP5500 (SCIEX) • Comparative Example 6, Comparative Example 7, Comparative Example 8 (human), Comparative Example 9, Comparative Example 10 (human) and Comparative Example 12 (human) • 4000 QTRAP (SCIEX) • column: • other than Example 3 and Example 4 • Cadenza CD-C18, 3 μm, 50×2 mm (Imtakt Corporation) • Example 3 and Example 4 • Kinetex C8, 2.6 μm, 50×2.1 mm (Phenomenex) • column temperature: 40° C. • mobile phase: • A: water containing 0.1% formic acid • B: acetonitrile containing 0.1% formic acid • A/B (min): • Example 1, Example 2, Example 5, Example 6, Comparative Example 8 (mouse), Comparative Example 10 (mouse) and Comparative Example 12 (mouse) • 90/10(0)→40/60(5.0)→10/90(5.1)→10/90(6.5)→90/10(6.6)→90/10(8.0) • Example 3 and Example 4 • 86/14(0)→86/14(3.5)→10/90(5.5)→10/90(6.5)→86/14(6.6)→86/14(9.5) • Comparative Example 6, Comparative Example 7, Comparative Example 8 (human), Comparative Example 9, Comparative Example 10 (human) and Comparative Example 12 (human) • 90/10(0)→10/90(2.5)→10/90(3.5)→90/10(3.6)→90/10(5.0) • flow rate: 0.4 mL/min • detection: ESI (positive mode) • injection: 1 to 5 μL

[3] = Evaluation of conversion rate to active form in BALB/c mouse plasma (Experimental Example 3); type: in vitro ADME; details: BALB/c, mouse, 0.2 μmol/L
Protocol: as §1, §2, §3

SMILES: CCNC(=O)O[C@@H]1CN(C)CC[C@@H]1c1c(O)cc(O)c2c(=O)cc(-c3ccccc3Cl)oc12 [Comparative Example 4, reference compound]
- Production rate of Alvocidib ([1]; pH5.0, 0 hr): 1.7%
- Residual rate ([1]; pH5.0, 0 hr): 97.7%
- Production rate of Alvocidib ([1]; pH5.0, 0.5 hr): 1.8%
- Residual rate ([1]; pH5.0, 0.5 hr): 97.8%
- Production rate of Alvocidib ([1]; pH5.0, 1 hr): 1.7%
- Residual rate ([1]; pH5.0, 1 hr): 97.8%
- Production rate of Alvocidib ([1]; pH5.0, 2 hr): 1.8%
- Residual rate ([1]; pH5.0, 2 hr): 97.7%
- Production rate of Alvocidib ([1]; pH5.0, 3 hr): 1.8%
- Residual rate ([1]; pH5.0, 3 hr): 97.7%
- Production rate of Alvocidib ([1]; pH5.5, 0 hr): 1.8%
- Residual rate ([1]; pH5.5, 0 hr): 97.8%
- Production rate of Alvocidib ([1]; pH5.5, 0.5 hr): 1.8%
- Residual rate ([1]; pH5.5, 0.5 hr): 97.6%
- Production rate of Alvocidib ([1]; pH5.5, 1 hr): 1.8%
- Residual rate ([1]; pH5.5, 1 hr): 97.7%
- Production rate of Alvocidib ([1]; pH5.5, 2 hr): 1.8%
- Residual rate ([1]; pH5.5, 2 hr): 97.8%
- Production rate of Alvocidib ([1]; pH5.5, 3 hr): 1.8%
- Residual rate ([1]; pH5.5, 3 hr): 97.6%
- Production rate of Alvocidib ([1]; pH6.0, 0 hr): 1.8%
- Residual rate ([1]; pH6.0, 0 hr): 97.8%
- Production rate of Alvocidib ([1]; pH6.0, 0.5 hr): 1.8%
- Residual rate ([1]; pH6.0, 0.5 hr): 97.7%
- Production rate of Alvocidib ([1]; pH6.0, 1 hr): 1.7%
- Residual rate ([1]; pH6.0, 1 hr): 97.7%
- Production rate of Alvocidib ([1]; pH6.0, 2 hr): 1.8%
- Residual rate ([1]; pH6.0, 2 hr): 97.7%
- Production rate of Alvocidib ([1]; pH6.0, 3 hr): 1.8%
- Residual rate ([1]; pH6.0, 3 hr): 97.7%
- Production rate of Alvocidib ([1]; pH6.5, 0 hr): 1.8%
- Residual rate ([1]; pH6.5, 0 hr): 97.7%
- Production rate of Alvocidib ([1]; pH6.5, 0.5 hr): 1.8%
- Residual rate ([1]; pH6.5, 0.5 hr): 97.6%
- Production rate of Alvocidib ([1]; pH6.5, 1 hr): 1.8%
- Residual rate ([1]; pH6.5, 1 hr): 97.7%
- Production rate of Alvocidib ([1]; pH6.5, 2 hr): 1.8%
- Residual rate ([1]; pH6.5, 2 hr): 97.8%
- Production rate of Alvocidib ([1]; pH6.5, 3 hr): 1.8%
- Residual rate ([1]; pH6.5, 3 hr): 97.7%
- Production rate of Alvocidib ([1]; pH7.0, 0 hr): 1.8%
- Residual rate ([1]; pH7.0, 0 hr): 97.7%
- Production rate of Alvocidib ([1]; pH7.0, 0.5 hr): 1.8%
- Residual rate ([1]; pH7.0, 0.5 hr): 97.7%
- Production rate of Alvocidib ([1]; pH7.0, 1 hr): 1.8%
- Residual rate ([1]; pH7.0, 1 hr): 97.6%
- Production rate of Alvocidib ([1]; pH7.0, 2 hr): 1.8%
- Residual rate ([1]; pH7.0, 2 hr): 97.6%
- Production rate of Alvocidib ([1]; pH7.0, 3 hr): 1.8%
- Residual rate ([1]; pH7.0, 3 hr): 97.7%
- Production rate of Alvocidib ([1]; pH7.4, 0 hr): 1.8%
- Residual rate ([1]; pH7.4, 0 hr): 97.7%
- Conversion to Alvocidib at pH 7.4 ([1]; pH 7.4, 37° C., up to 3 hours): slowly converted to Alvocidib
- Production rate of Alvocidib ([1]; pH7.4, 0.5 hr): 1.8%
- Residual rate ([1]; pH7.4, 0.5 hr): 97.6%
- Production rate of Alvocidib ([1]; pH7.4, 1 hr): 1.7%
- Residual rate ([1]; pH7.4, 1 hr): 97.7%
- Production rate of Alvocidib ([1]; pH7.4, 2 hr): 1.8%
- Residual rate ([1]; pH7.4, 2 hr): 97.7%
- Production rate of Alvocidib ([1]; pH7.4, 3 hr): 1.8%
- Residual rate ([1]; pH7.4, 3 hr): 97.8%
- Production rate (%) of Alvocidib ([2]; 0 min): 2%
- Residual rate (%) of test compound ([2]; 0 min): 100%
- Production rate (%) of Alvocidib ([2]; 60 min): 3%
- Residual rate (%) of test compound ([2]; 60 min): 101%
- Production rate (%) of Alvocidib ([2]; 120 min): 3%
- Residual rate (%) of test compound ([2]; 120 min): 134%
- Production rate (%) of Alvocidib ([3]; 0 min): 2%
- Residual rate (%) of test compound ([3]; 0 min): 100%
- Production rate (%) of Alvocidib ([3]; 60 min): 3%
- Residual rate (%) of test compound ([3]; 60 min): 94%
- Production rate (%) of Alvocidib ([3]; 120 min): 3%
- Residual rate (%) of test compound ([3]; 120 min): 92%

Reference: patent publication US12617779B2, “Self degradation-type CDK9 inhibitor prodrug and liposome encapsulating same” (Sumitomo Pharma Co., Ltd., priority 2021, dated 2026)
